Values of other authors as cited in paper PMC4734747 (Journal of nuclear medicine : official publication, Society …, 2013).

Key:
P-gp = settings: rodents; ref 19 (Verbeek et al.)
P-gp at the BBB = settings: brain, macaques, no P-gp inhibition
P-gp at the human BBB [1] = settings: brain, humans, no P-gp inhibition
P-gp at the human BBB [2] = settings: tariquidar 6 mg/kg; not necessarily the maximal increase

SMILES	affinity to P-gp relative to verapamil (P-gp)	mean baseline K1 (P-gp at the BBB) [mL/min/g]	mean baseline K1 (P-gp at the human BBB [1]) [mL/min/g]	increase in the brain distribution (reported by K1) after P-gp inhibition (P-gp at the human BBB [2]) [fold]
CNCCCC(C#N)(c1ccc(OC)c(OC)c1)C(C)C (stereo not shown) [D617]	lower affinity to P-gp than does verapamil	–	–	–
CNC(=O)C(CCN1CCC(O)(c2ccc(Cl)cc2)CC1)(c1ccccc1)c1ccccc1 [dLOP, N-desmethyl-loperamide]	–	0.04	0.015	4
